Laboratory results published in paper PMC11352409, “Subtype-Specific Ligand Binding and Activation Gating in Homomeric and Heteromeric P2X Receptors” (Biomolecules, 2024).

Biological target: T1, human P2X2 receptors (Homo sapiens, UniProt Q9UBL9)
T1 construct: expressed in transfected cells
T1 sequence (Q9UBL9 1-404 isoform Q9UBL9-2): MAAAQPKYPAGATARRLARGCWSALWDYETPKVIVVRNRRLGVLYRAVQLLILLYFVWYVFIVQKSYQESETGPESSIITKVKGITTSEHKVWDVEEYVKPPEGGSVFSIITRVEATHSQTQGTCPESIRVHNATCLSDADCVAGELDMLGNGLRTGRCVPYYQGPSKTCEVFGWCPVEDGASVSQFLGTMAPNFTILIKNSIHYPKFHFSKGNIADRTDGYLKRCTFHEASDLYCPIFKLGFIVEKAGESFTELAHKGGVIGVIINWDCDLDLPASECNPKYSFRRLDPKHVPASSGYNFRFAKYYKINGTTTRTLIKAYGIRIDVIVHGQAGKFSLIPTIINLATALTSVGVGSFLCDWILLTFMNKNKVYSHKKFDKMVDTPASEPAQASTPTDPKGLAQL
Assay: Confocal microscopy binding of fluorescent ATP derivatives to HEK293 cells expressing hP2X2
Details: for Binding to receptor: hP2X2, confocal binding signal
Experimental: For the detection of ligand binding, the cells were incubated with the fluorescent ATP derivatives in chambered coverslips or 96-well plates with cover-slip bottoms. The surface was coated with 0.1 mg/mL of poly-L-lysine for 12 h and washed twice with PBS before seeding the cells at […] density. The cells were suspended 24 h after induction and allowed to settle for two hours before being utilised for the measurements. The solutions were freshly prepared before each experiment. The bulk solution was counter-stained with the red fluorescence dye Dy647. Each confocal voxel covering the cell membrane contained both the signal from the bound ligand and the signal from ligands in the bulk solution. This additional signal, e.g., the fraction of the bulk solution inside a voxel, varied from pixel to pixel and can hardly be described theoretically.
Figure 2 Confocal microscopy was used to characterise the binding of fluorescently tagged ligands to HEK 293 cells stably expressing human P2X2 receptors. (a) Structure of fATP and α,βMe-fATP. The dye DY547P1 is attached to the 2-position of the purine ring through an aminohexylthio-linker. (b) Representative confocal images for quantification of fATP and α,βMe-fATP binding, including approximately 200 stably transfected cells/mm^2. Specific binding is proven by the lack of signal in non-induced cells and in cells expressing P2X2 receptors in the presence of 100 µM ATP. […]
The concentration–binding relationships were normalised to their maximum relative fluorescence intensities at a saturating fATP or α,βMe-fATP concentration.
Measuring the binding of ligands to receptors is challenging. […] Ligand binding was measured in stably transfected HEK293 cells expressing P2X receptors, attached to the glass bottom of the experimental chamber (Figure 2b). Quantifying ligand binding by automated fluorescence methods remains demanding at low expression levels and high ligand concentrations when the background signal becomes significant. To address this issue, we used the red fluorescence dye Dy647 at a concentration of 1 µM [27, 33, 34]. […]

| SMILES | Binding to receptor | Fraction of ligand remaining bound at high Mg2+ (hP2X2, fATP binding after application of 10 mM Mg2+) |
| --- | --- | --- |
| COCC[N+]1=C(C=CC=C2N(CCCCCC(=O)NCCCCCCSc3nc(N)c4ncn(C5OC(COP(=O)(O)CP(=O)(O)OP(=O)(O)O)C(O)C5O)c4n3)c3ccc(S(=O)(=O)O)cc3C2(C)C)C(C)(C)c2cc(S(=O)(=O)[O-])ccc21 (stereo not drawn) [α,βMe-fATP, 2-[DY-547P1]-AHT-α,βMe-ATP] | robust binding affinity |  |
| COCC[N+]1=C(C=CC=C2N(CCCCCC(=O)NCCCCCCSc3nc(N)c4ncn(C5OC(COP(=O)(O)OP(=O)(O)OP(=O)(O)O)C(O)C5O)c4n3)c3ccc(S(=O)(=O)O)cc3C2(C)C)C(C)(C)c2cc(S(=O)(=O)[O-])ccc21 (stereo not drawn) [fATP, 2-[DY-547P1]-AHT-ATP] | robust binding affinity | ~ 40% |
